The values below come from ChEMBL document CHEMBL4699619, “Development of a Polo-like Kinase-1 Polo-Box Domain Inhibitor as a Tumor Growth Suppressor in Mice Models” (J Med Chem, 2020).

Series [1] addresses T1, Serine/threonine-protein kinase PLK1 (Homo sapiens, UniProt P53350). Kind of series: Displacement of 5-carboxyfluorescein-labeled PBD-binding peptide from PLk1 PBD (unknown origin) expressed in bacterial expression system incubated for 10 mins by fluorescence polarization assay. For orientation: Polarisation of emitted light reports the rotation of a fluorescent probe.
The subject of series [2] is HeLa. Kind of series: Induction of apoptosis in human Hela cells assessed as dead cells at 100 nM after 48 hrs by fluorescence microscope analysis relative to control. The class given is functional.
Series [3] concerns HeLa. Kind of series: Antitumor activity against human Hela cells xenografted in Balb/c nu nu mouse assessed as decrease in tumor size at 5 mg/kg, iv for 29 days. The note with it: time 29.0 day. The class given is functional, organism-based. On the technique in general: In xenograft studies the graft and the host belong to different species.
Series [4] has as its system HeLa. Kind of series: Induction of cell cycle arrest in human Hela cells assessed as number of cells at S phase at 100 nM after 24 hrs by flow cytometry analysis (reference value: 7.86%). The class given is functional. In general terms: Flow cytometry measures light scatter and fluorescence of single cells or particles in a stream.
Series [5] concerns HeLa. Kind of series: Induction of apoptosis in human Hela cells assessed as dead cells at 100 nM after 24 hrs by fluorescence microscope analysis relative to control. In kind it is functional.
For series [6], the system named is HeLa. Kind of series: Induction of cell cycle arrest in human Hela cells assessed as number of cells at G0/G1 phase at 100 nM after 24 hrs by flow cytometry analysis (reference value: 74.14%). The class given is functional.
Series [7] has as its system HeLa. Kind of series: Induction of cell cycle arrest in human Hela cells assessed as number of cells at G2/M phase at 100 nM after 24 hrs by flow cytometry analysis (reference value: 18%). In kind it is functional.
Series [8] can be described thus: Toxicity in Balb/c nu nu mouse xenografted with human Hela cells assessed as changed in body weight at 5 mg/kg, iv for 29 days. The class given is organism-based. The note with it: in vivo, 696 h, time 29 day.
Series [9] in a line: Half life in ICR mouse at 5 mg/kg, iv measured upto 24 hrs by LC/MS/MS analysis. The following applies: in vivo. The class given is ADME, organism-based.
The subject of series [10] is HeLa. Kind of series: Induction of cell cycle arrest in human Hela cells assessed as number of cells at G2/M phase at 200 uM after 24 hrs by flow cytometry analysis (reference value: 18%). In kind it is functional.
The species named for another series is Homo sapiens. Kind of series: Selectivity ratio for binding affinity for PLK2 PBD (unknown origin) to binding affinity for PLK1 PBD (unknown origin).
A short description of series [11]: Ratio of drug uptake in BALB/c nu/nu mouse xenografted with Hela cells tumor to muscle using Cy5-conjugated compound at 5 mg/kg, iv measured after 6 hrs by fluorescence microscopic analysis. In kind it is ADME, organism-based. The note with it: in vivo.
Series [12] deals with T1, Serine/threonine-protein kinase PLK1. Kind of series: Inhibition of PLK1 PBD interaction with p-Cdc25c in human Hela cells assessed as decrease in phosphorylated Cdc25c co-preciptated with GST-PLK1 PBD by pull down assay. In kind it is cell-based.
A short description of series [13]: Volume of distribution at steady state in ICR mouse at 5 mg/kg, iv measured upto 24 hrs by LC/MS/MS analysis. In kind it is ADME, organism-based. The following applies: in vivo.
Series [14] deals with HeLa. Kind of series: Induction of cell cycle arrest in human Hela cells assessed as number of cells at S phase at 200 uM after 24 hrs by flow cytometry analysis (reference value: 7.86%). The class given is functional.
The nature of series [15]: Clearance in ICR mouse at 5 mg/kg, iv measured upto 24 hrs by LC/MS/MS analysis. The class given is ADME, organism-based. The note with it: in vivo.
Series [16] in a line: AUClast in ICR mouse at 5 mg/kg, iv measured upto 24 hrs by LC/MS/MS analysis. In kind it is ADME, organism-based. The arrangement: route intravenous, dose 5 mg/kg, time <=24. The following applies: in vivo.
Series [17] in a line: Ratio of drug uptake in BALB/c nu/nu mouse xenografted with Hela cells tumor to muscle using Cy5-conjugated compound at 5 mg/kg, iv measured after 24 hrs by fluorescence microscopic analysis. In kind it is ADME, organism-based. The following applies: in vivo.
Series [18] can be described thus: Ratio of drug uptake in BALB/c nu/nu mouse xenografted with Hela cells tumor to muscle using Cy5-conjugated compound at 5 mg/kg, iv measured after 30 hrs by fluorescence microscopic analysis. The class given is ADME, organism-based. The following applies: in vivo.
Series [19] is described as follows: Mean residence time in ICR mouse at 5 mg/kg, iv measured upto 24 hrs by LC/MS/MS analysis. In kind it is ADME, organism-based. The note with it: in vivo.
In series [20] the test system is HeLa. Kind of series: Induction of cell cycle arrest in human Hela cells assessed as number of cells at G0/G1 phase at 200 uM after 24 hrs by flow cytometry analysis (reference value: 74.14%). The class given is functional.
Series [21] addresses T1, Serine/threonine-protein kinase PLK1. Kind of series: Inhibition PLK1 localization in mitotic kinetochore in human Hela cells at 200 uM after 18 hrs by immunofluorescence analysis relative to control. The class given is cell-based.
The nature of series [22]: Ratio of drug uptake in BALB/c nu/nu mouse xenografted with Hela cells tumor to muscle using Cy5-conjugated compound at 5 mg/kg, iv measured after 48 hrs by fluorescence microscopic analysis. The class given is ADME, organism-based. The following applies: in vivo.
Series [23] is described as follows: Drug uptake in muscle of BALB/c nu/nu mouse xenografted with Hela cells using Cy5-conjugated compound at 5 mg/kg, iv measured after 48 hrs by fluorescence microscopic analysis. The class given is ADME, organism-based, Muscle tissue. The note with it: in vivo.
The target of series [24] is Serine/threonine-protein kinase PLK3 (Homo sapiens, UniProt Q9H4B4). Kind of series: Displacement of 5-carboxyfluorescein-labeled PBD-binding peptide from PLk3 PBD (unknown origin) expressed in bacterial expression system incubated for 10 mins by fluorescence polarization assay.
Sequence of Serine/threonine-protein kinase PLK3 (Q9H4B4 whole entry): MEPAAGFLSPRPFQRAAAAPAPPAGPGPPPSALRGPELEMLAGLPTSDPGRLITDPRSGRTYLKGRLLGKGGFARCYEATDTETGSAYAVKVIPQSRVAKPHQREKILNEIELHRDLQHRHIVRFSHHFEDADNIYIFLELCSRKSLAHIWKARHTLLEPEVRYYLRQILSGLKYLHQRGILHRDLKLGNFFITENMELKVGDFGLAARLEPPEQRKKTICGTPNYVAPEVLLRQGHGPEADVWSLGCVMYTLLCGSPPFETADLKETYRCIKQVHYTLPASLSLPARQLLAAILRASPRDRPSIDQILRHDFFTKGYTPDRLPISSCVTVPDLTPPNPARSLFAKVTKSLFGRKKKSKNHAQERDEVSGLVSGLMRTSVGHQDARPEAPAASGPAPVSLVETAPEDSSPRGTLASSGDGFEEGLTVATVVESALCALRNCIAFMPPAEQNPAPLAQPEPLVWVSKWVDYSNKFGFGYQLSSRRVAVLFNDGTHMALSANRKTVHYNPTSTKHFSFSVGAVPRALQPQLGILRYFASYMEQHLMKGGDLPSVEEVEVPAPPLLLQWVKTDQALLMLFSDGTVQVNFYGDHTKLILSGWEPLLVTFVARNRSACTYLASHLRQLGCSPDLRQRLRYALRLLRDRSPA
Series [25] relates to HeLa. Kind of series: Induction of apoptosis in human Hela cells assessed as dead cells at 200 uM after 24 hrs by fluorescence microscope analysis relative to control. In kind it is functional.
In series [26] the test system is HeLa. Kind of series: Induction of apoptosis in human Hela cells assessed as dead cells at 200 uM after 48 hrs by fluorescence microscope analysis relative to control. In kind it is functional.
Series [27] is described as follows: Drug uptake in tumor of BALB/c nu/nu mouse xenografted with Hela cells using Cy5-conjugated compound at 5 mg/kg, iv measured after 48 hrs by fluorescence microscopic analysis. The class given is ADME, organism-based, Neoplasm. The note with it: in vivo.
The nature of series [28]: Drug uptake in human Hela cells using Cy5-conjugated compound at 200 uM after 18 hrs by fluorescence microscopic analysis. In kind it is ADME, cell-based.
Series [29] in a line: AUC(infinity) in ICR mouse at 5 mg/kg, iv measured upto 24 hrs by LC/MS/MS analysis. In kind it is ADME, organism-based. The arrangement: route intravenous, dose 5 mg/kg, time <=24. The note with it: in vivo.

The structures appear in SMILES notation. Active and inactive are the calls of the source. The calls are words filed in the database; no cut-off is given here. Non-standard residues stand in square brackets, D forms with d. Residues, ends and D or L forms follow the SMILES beside them. pT = C[C@@H](OP(=O)(O)O)[C@H](N)C(=O)O

T1 sequence (P53350 whole entry): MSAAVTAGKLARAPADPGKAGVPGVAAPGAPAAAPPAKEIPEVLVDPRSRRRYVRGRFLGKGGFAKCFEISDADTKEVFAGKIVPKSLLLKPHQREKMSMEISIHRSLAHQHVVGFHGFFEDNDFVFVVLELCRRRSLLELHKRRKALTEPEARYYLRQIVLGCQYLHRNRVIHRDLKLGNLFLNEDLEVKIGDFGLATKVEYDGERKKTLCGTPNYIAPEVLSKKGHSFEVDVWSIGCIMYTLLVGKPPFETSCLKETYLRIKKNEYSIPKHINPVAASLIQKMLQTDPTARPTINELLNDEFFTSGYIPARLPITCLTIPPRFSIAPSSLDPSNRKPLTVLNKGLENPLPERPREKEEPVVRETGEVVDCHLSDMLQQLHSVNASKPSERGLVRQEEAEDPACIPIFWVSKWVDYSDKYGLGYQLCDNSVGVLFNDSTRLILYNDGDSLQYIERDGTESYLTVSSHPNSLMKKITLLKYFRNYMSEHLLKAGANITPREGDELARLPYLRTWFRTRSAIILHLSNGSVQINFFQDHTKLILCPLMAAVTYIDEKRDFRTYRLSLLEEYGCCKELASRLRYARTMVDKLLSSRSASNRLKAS

The inhibition is the change of the read-out against control, counted positive when it falls. In the case of `O=C1NC(=O)C(=Cc2cn(Cc3cccc(OC(F)(F)F)c3)nc2-c2ccccc2)C(=O)N1`, in series [1], the inhibition entry is “inactive”.
Take `CC[C@@H]1C(=O)N(C)c2cnc(Nc3ccc(C(=O)NC4CCN(C)CC4)cc3OC)nc2N1C1CCCC1` [BI-2536]: the Activity was 91.5% with HeLa [2]; 9.9% with HeLa [4]; 31.1% in the series with HeLa [5]; 61.34% in the series with HeLa [6]; 28.76% in the series with HeLa [7]; “Non-Toxic” in series [8]. Further, the outcome in the series with HeLa [3] was Active.
What is called IC50 is the concentration that gives 50% inhibition. A lower IC50 goes with greater potency in that assay. `O=C1NC(=O)C(=Cc2cn(CCN3CCOCC3)nc2-c2ccccc2)C(=O)N1` yielded a half-maximal inhibitory concentration (IC50) in [1] of 71 µM.
Take `O=C1NC(=O)C(=Cc2cn(CCCCc3ccccc3)nc2-c2ccccc2)C(=O)N1`: in [1], the inhibition result is “Active”.
Take `O=C1C(=Cc2cn(-c3ccccc3)nc2-c2ccccc2)C(=O)N(CCc2ccccc2)C(=O)N1CCc1ccccc1`: in [1], the inhibition result is “inactive”.
In the case of `O=C1NC(=O)C(=Cc2cn(CCNC(=O)c3ccccc3)nc2-c2ccccc2)C(=O)N1`, in series [1], the inhibition entry was “inactive”.
In the case of `CS(=O)(=O)c1ccc(C(=O)NCCn2cc(C=C3C(=O)NC(=O)NC3=O)c(-c3ccccc3)n2)cc1`, the inhibition entry in [1] was “inactive”.
On to `CCCN1C(=O)C(=Cc2cn(-c3ccccc3)nc2-c2ccccc2)C(=O)N(CCC)C1=O`, for which, in series [1], the inhibition entry was “inactive”.
As a reminder, the Vdss is a proportionality between amount in the body and measured concentration, not a real space. Read a high Vdss as wide distribution into tissue. What is called MRT is the average time that molecules of a dose stay in the body. Usually AUC stands for the area under the concentration-time curve, a measure of exposure. A low value points to less exposure. `CNc1ccc(C(=O)NCCn2cc(C=C3C(=O)NC(=O)NC3=O)c(-c3ccccc3)n2)cc1` displayed a t1/2 in series [9] of 7.73 h. The Activity in the series on HeLa [10] is 27.12%; with HeLa [14] it was 18.41%; with HeLa [20] it was 54.47%; in the series with HeLa [25], 24.6%; with HeLa [26], 71.1%; in [8] it was “Non-Toxic”. Besides, the Ratio in the series listed under Homo sapiens worked out at 2; in series [11], 2.1; in [17] it was 3.9; in series [18], 4.11; in series [22], 4.2. Moreover, the inhibition result in [12] is “Active”. Also, the Vdss in series [13] stood at 0.31 L/kg. For the same compound, the CL in series [15] stood at 7.17 mL/min/kg. This compound also yielded an AUClast in series [16] of 11504.31 ng·h/mL. Also, the outcome in the series on HeLa [3] was Active. Also, the MRT in series [19] is 0.72 h. For the same compound, the inhibition in series [21] worked out at 61%. The Drug uptake result in [23], in series [27] and in series [28] was “Active” in each case. In series [1], the half-maximal inhibitory concentration (IC50) is 16.4 µM. Further, the “inhibition (INH)” value in series [24] is recorded as “Not Active”. This compound came in with an AUC in series [29] of 11535.29 ng·h/mL.
Take `O=C1NC(=O)C(=Cc2cn(Cc3ccc(OC(F)(F)F)cc3)nc2-c2ccccc2)C(=O)N1`: the inhibition result in series [1] is “inactive”.
In series [1], `O=C1NC(=O)C(=Cc2cn(-c3ccccc3)nc2-c2ccccc2)C(=O)N1` gave an IC50 of 32.2 µM.
Take `CSc1ccc(Cn2cc(C=C3C(=O)NC(=O)NC3=O)c(-c3ccccc3)n2)cc1`: in [1], the inhibition result was “inactive”.
Regarding `O=C1NC(=O)C(=Cc2cn(CCNC(=O)C3CCCCC3)nc2-c2ccccc2)C(=O)N1`, in series [1], the inhibition result is “inactive”.
`O=C1NC(=O)C(=Cc2cn(Cc3ccccc3)nc2-c2ccccc2)C(=O)N1` gave an IC50 in series [1] of 52.7 µM.
With `CN1C(=O)C(=Cc2cn(-c3ccccc3)nc2-c2ccccc2)C(=O)N(C)C1=O`, in [1], the inhibition result is “inactive”.
In series [1], `CC[C@H](C)[C@H](NC(=O)[C@H](C)NC(=O)[C@@H](NC(=O)[C@H](CO)NC(=O)[C@H](Cc1cnc[nH]1)NC(=O)[C@H](CC(C)C)NC(=O)[C@@H]1CCCN1C(C)=O)[C@@H](C)OP(=O)(O)O)C(=O)N[C@@H](Cc1ccc(O)cc1)C(=O)N[C@@H](C)C(N)=O` (Ac-PLHS[pT]AIYA-NH2) gave an IC50 of 0.23 µM.
